{"source": "patent US6458828B1", "about": "“Deodorants, foods and beverages, and oral compositions as well as toiletry products” (Lotte Co., Ltd., priority 1999, dated 2002)", "key": {"[1]": {"assay": "Test 1 deodorizing effect test (head-space gas chromatography, pH 7.5)", "conditions": "reduction ratio of methylmercaptan vs sample-free system; sample 7.5 mg/ml, pH 7.5, 25 ppm sodium methylmercaptan, 30 minutes at 37° C.", "method": "After 1.0 ml of the sample solution and 0.5 ml of 25 ppm sodium methylmercaptan was added in a vial to shake the same for 30 minutes at 37° C., and then 200 μl of a vapor phase component in the vial was gathered. An amount of formed methylmercaptan was measured by the gas chromatography to compare the same with a sample-free system, thereby to find a reduction ratio of methylmercaptan as a deodorizing coefficient. […] The gas chromatography uses “GC-9A” commercially available from Shimazu Manufacturing Co., Ltd. The measuring conditions were described below. [table]"}, "[2]": {"assay": "Gas chromatography analysis of sulfides with caramels and maltols", "conditions": "garlic and onion odor ingredients", "method": "Also, in Japanese laid-open publication 62-169720, it is also disclosed that caramels and maltols (3-hydroxy-2-methyl-γ-pyrone) obtained from heating sucrose or glucose show deodorizing effect against garlic and onion odors. If, however, the odor composition was analyzed by a gas chromatography, then no change in odor composition was observed."}, "[3]": {"assay": "Deodorizing activity by head-space method using gas chromatography (general statements)", "excerpt": "The resent inventors have researched on various materials to discover the effective deodorant in the head-space method using a gas chromatography."}, "[4]": {"assay": "Test 3 deodorizing effect test against ammonia (Kitagawa detecting tube)", "conditions": "50 mg sample in 1.96 ml water, 40 μl ammonia solution (0.28%), 5 minutes at 37° C.", "method": "Each of 50 mg of the palatinose-derived thermal decomposition of Example 1 and sodium copper chlorophyllin was dissolved into 1.96 ml of water in 100 ml of the vial respectively. Then, 40 μl of an ammonia solution (0.28%) was added and shaken for 5 minutes at 37° C. and 100 ml of the vapor phase component in the vial was measured under a vacuum pressure by use of a Kitagawa detecting tube (ammonia No.3). The deodorizing rate of each sample was calculated from the concentration of ammonia in case of addition of no sample."}}}
{"compound": "OC[C@H]1O[C@@](CO)(O[C@H]2O[C@H](CO)[C@@H](O)[C@H](O)[C@H]2O)[C@@H](O)[C@@H]1O", "note": "[Sucrose, sucrose]", "values": [{"measurement": "Deodorant coefficient (%)", "setting": "[1]", "result": 0.0, "unit": "%"}]}
{"compound": "Cc1occc(=O)c1O", "note": "[maltols, 3-hydroxy-2-methyl-γ-pyrone]", "values": [{"measurement": "change in composition of sulfides (methyl marcaptan, allyl marcaptan) by gas chromatography", "setting": "[2]", "result": "no change in the composition was observed"}]}
{"compound": "OC[C@H]1O[C@H](OC[C@H]2OC(O)(CO)[C@@H](O)[C@@H]2O)[C@H](O)[C@@H](O)[C@@H]1O", "note": "(some centres unmarked) [Palatinose, palatinose]", "values": [{"measurement": "deodorizing activity / effect against methyl mercaptan (in words)", "setting": "[3]", "result": "does not provide such the effect"}, {"measurement": "Deodorant coefficient (%)", "setting": "[1]", "result": 0.0, "unit": "%"}]}
{"compound": "sodium copper chlorophyllin", "values": [{"measurement": "Rate of deodorizing (%)", "setting": "[4]", "result": 9.2, "unit": "%"}]}
